# Laboratory results: patent publication US20060029684A1, “Synergistic treatment of DNA viral infections” (Henderson Morley Research and Development Limited, priority 1999, published 2006)
# Read-outs that look alike come from different tables or passages of the source.
# Legend:
# [1] = system: type 2 herpes simplex virus strain 3345; assay: Inhibition of HSV2 replication in infected African green monkey kidney cells (Example 1, Table 1); assay type: cell-based; settings: for inhibition of virus replication: Lithium 0 mN
# From the text: Compositions were applied to African green monkey kidney and […] cells infected with type 2 herpes simplex virus strains 3345 and 180 at low, intermediate and high multiplicities of infection. MOI inhibition of virus replication was scored as follows: […]
# [2] = system: Type 2 herpes simplex strain 3345; assay: Herpes simplex virus bioassay in Vero cells, inhibition of hsv2 (Example 2); assay type: cell-based; settings: Human alphaherpesvirus 2, Vero
# Protocol: . Culture and assay methods follow those described by Lennette and Schmidt (1979) for herpes simplex virus and Vero cells with minor modifications.
# Type 1 herpes simplex strain HFEM is a derivative of the Rockerfeller strain HF (Wildy 1955), and Type 2 herpes simplex strain 3345, a penile isolate (Skinner et al 1977) were used as prototype strains. These prototypes were stored at −80° C. until needed.
# African Green Monkey kidney cells (vero) were obtained from the National Institute of Biological Standards and Control UK and were used as the only cell line for all experiments in this example.
# Cells and viruses were maintained on Glasgows modified medium supplemented with 10% foetal bovine serum.
smiles,measurement,setting,value
"NS(=O)(=O)c1cc(C(=O)O)c(NCc2ccco2)cc1Cl [Frusemide, 4-chloro-N-furfuryl-5-sulfamoylanthranilic acid]",inhibition of virus replication,"[1]; HIGH MOI HSV2, Frusemide 0.5 mg/ml",− (No inhibition)
same,inhibition of virus replication,"[1]; HIGH MOI HSV2, Frusemide 1.0 mg/ml",− (No inhibition)
same,inhibition of virus replication,"[1]; HIGH MOI HSV2, Frusemide 2.0 mg/ml",− (No inhibition)
same,inhibition at 500 µg/mL,[1]; Human alphaherpesvirus 2,0%
same,inhibition at 1000 µg/mL,[1]; Human alphaherpesvirus 2,0%
same,inhibition at 2000 µg/mL,[1]; Human alphaherpesvirus 2,0%
same,inhibition of virus replication,"[1]; LOW MOI HSV2, Frusemide 0.5 mg/ml",− (No inhibition)
same,inhibition of virus replication,"[1]; LOW MOI HSV2, Frusemide 1.0 mg/ml",− (No inhibition)
same,inhibition of virus replication,"[1]; LOW MOI HSV2, Frusemide 2.0 mg/ml",− (No inhibition)
same,inhibition of hsv2 replication,"[1]; frusemide 2 mg/ml, all multiplicities of infection",no inhibition
same,inhibition at 1000 µg/mL,"[2]; read-out: Inhibition of hsv2, Effect of frusemide alone, Multiplicity of infection High, frusemide (1 mg/ml)",0%
same,inhibition at 1000 µg/mL,"[2]; read-out: Inhibition of hsv2, Effect of frusemide alone, Multiplicity of infection Low, frusemide (1 mg/ml)",40%
same,inhibition at 1000 µg/mL,"[2]; read-out: Inhibition of hsv2, Effect of frusemide alone, Multiplicity of infection Medium, frusemide (1 mg/ml)",40%
